Structures can show the parent of a compound that is named as a salt. Where two headings read alike, the source gives them in different places.
Tests used:
[1] = system: degradation of plasma clots; test: Plasma clot lysis assay; type: biochemical, human
Procedure: To determine the inhibitory effect of the compounds of the invention on the degradation of plasma clots.
3.1 Collect fresh healthy human blood, mix 1 part of anticoagulant (0.109 M trisodium citrate) with 9 parts of blood, centrifuge at 2000×g for 20 min at room temperature, collect the supernatant (plasma), sub-package and store at −80° C. for later use.
3.2 On the day of experiment, the plasma was thawed in a water bath at 37° C., and all reagents except tPA were pre-warmed at 37° C.
3.3 Add 12.5 μL of 80 mM CaCl2 (HEPES buffer, pH 7.4) to a 96-well plate, and then add 25 μL of different concentrations of test compound diluted with normal saline, add an equal volume of normal saline to the negative control well.
3.4 Mix 50 μL of pre-warmed plasma with 12.5 μL of 4 nM tPA (HEPES buffer, pH 7.4), immediately add to a 96-well plate, measure the absorbance at 405 nm every 2 minutes, continuously for 15 hours.
The time corresponding to the median of the absorption value in the descending section—the time corresponding to the median of the absorption value in the ascending section is the plasma clot degradation time (Clot lysis time). Taking the plasma clot lysis time of the negative control well as a reference, calculate the relative value of the plasma clot lysis time in the wells treated with different concentrations of the compound and the plasma clot lysis time of the negative control well to obtain the inhibition rate:
Inhibition rate%=(1−Clot lysis time of negative control well/Clot lysis time of compound treated well)×100%
Taking the log value of the compound concentration as the X-axis, and the percentage inhibition rate as the Y-axis, and dose-response curves were fitted with the software GraphPad Prism 5 by using log (inhibitor) vs. Response-Variable slope to derive IC50 values of compounds inhibiting the degradation of plasma clots.
Formula: Y=min+(max−min)/(1+10^((LogIC50−X)×Hillslope).

fibrinolysis = details: cited from earlier work
[2] = Monkey PK experiment (plasma concentration by LC-MS/MS); type: in vivo; details: male cynomolgus monkey, 1 mg/kg intravenous injection, single dose, fasted
Procedure: Male Cynomolgus monkey, normal grade, 3 monkeys each group (N=3)
The compound is weighed and dissolved in normal saline to prepare a 0.5 mg/mL clear solution for intravenous administration.
On the day of the experiment, the animals were administered according to the scheme in the table below. At each time point after administration, approximately 1 mL of blood was collected from the forearm vein and placed in heparin sodium anticoagulation tubes. Blood samples were placed on ice after collection, and the plasma was separated by centrifugation within 1 hour (centrifugation conditions: 2200 g, 10 minutes, 2-8° C.). The plasma samples were stored in a refrigerator at −80° C. until analysis.
The compound concentration in cynomolgus monkey plasma was determined by the following method: • Instruments and equipment: LC-MS/MS-19 (TQ5500, AB SCIEX, USA). • Internal standard: warfarin. • Chromatographic column: ACQUITY UPLC BEH C18, model 1.7 um 2.1*50 mm, purchased from Shenzhen Novah Chemical Technology Co., Ltd.; • Flow rate: 0.60 ml/min. • Column temperature: 40° C. • Mobile phase A: 0.1% formic acid in water. • Mobile phase B: 0.1% formic acid in acetonitrile.
Take 30 μL of the plasma sample prepared from item “2” , add 300 μL MeOH containing 100 ng/mL of internal standard to precipitate protein. The mixture was vortexed for 1 minute and centrifuged at 18000 g for 7 minutes. The supernatant was transferred to a 96-well plate. Inject 4 μL of supernatant into LC-MS/MS for analysis.
Pharmacokinetic parameters were calculated by using Phoenix WinNonlin7.0 software according to blood concentration data of different time points.

[3] = human plasma, tPA, inhibition of plasma clot degradation in vitro relative to tranexamic acid

SMILES | IC50 ratio (IC50 Examples/IC50 Tranexamic acid) [1, 3] | also measured
NC1CNCc2ccc(C(=O)O)nc21 (stereo not shown) [Example 3, 8-amino-5,6,7,8-tetrahydro-1,6-naphthyridine-2-carboxylic acid dihydrochloride] | 2.89 | –
Cl.O=C(O)c1ccc2c(n1)CC1(CCCC1)NC2 [Example 46] | 0.33 | –
O=C(O)c1ccc2c(n1)CC(CNCCO)NC2 (stereo not shown) [Example 31] | 1.87 | –
Cl.O=C(O)c1ccc2c(n1)CC(CO)NC2 (stereo not shown) [Example 23] | 0.17 | –
Cl.O=C(O)c1ccc2c(n1)CC1(CCCCC1)NC2 [Example 47] | 0.40 | –
Cl.O=C(O)c1ccc2c(n1)CC(CCCCO)NC2 (stereo not shown) [Example 10, 7-(4-hydroxybutyl)-5,6,7,8-tetrahydro-1,6-naphthyridine-2-carboxylic acid hydrochloride] | 0.18 | –
Cl.O=C(O)c1ccc2c(n1)CC(CCCc1ccccc1)NC2 (stereo not shown) [Example 34] | 0.11 | –
COc1ccc(CCC2Cc3nc(C(=O)O)ccc3CN2)cc1.Cl (stereo not shown) [Example 42] | 0.17 | –
Cl.O=C(O)c1ccc2c(n1)C(N1CCNCC1)CNC2 (stereo not shown) [Example 22] | 0.67 | –
Cl.O=C(O)c1ccc2c(n1)CC(C1(O)CC1)NC2 (stereo not shown) [Example 9, 7-(1-hydroxycyclopropyl)-5,6,7,8-tetrahydro-1,6-naphthyridine-2-carboxylic acid hydrochloride] | 0.44 | –
Cl.O=C(O)c1ccc2c(n1)CC(CCC1CCCCC1)NC2 (stereo not shown) [Example 43] | 0.11 | –
CC(C)CCC1Cc2nc(C(=O)O)ccc2CN1.Cl (stereo not shown) [Example 38] | 0.13 | –
Cl.O=C(O)c1ccc2c(n1)CC1(CCC1)NC2 [Example 49] | 0.28 | –
Cl.O=C(O)c1ccc2c(n1)CC(Cc1ccccc1)NC2 (stereo not shown) [Example 27] | 0.67 | –
CC(C)(O)C1Cc2nc(C(=O)O)ccc2CN1.Cl (stereo not shown) [Example 24] | 1.67 | –
CC(C)CC1Cc2nc(C(=O)O)ccc2CN1.Cl (stereo not shown) [Example 26] | 0.22 | –
CC(C)(C)CCC1Cc2nc(C(=O)O)ccc2CN1.Cl (stereo not shown) [Example 40] | 0.18 | –
Cl.O=C(O)c1ccc2c(n1)CC(CO)(CO)NC2 [Example 25] | 6.36 | –
Cl.O=C(O)c1ccc2c(n1)CC(C(=O)O)NC2 (stereo not shown) [Example 16, 5,6,7,8-tetrahydro-1,6-naphthyridine-2,7-dicarboxylic acid hydrochloride] | 0.54 | –
Cl.O=C(O)c1ccc2c(n1)CC(C(O)CCCO)NC2 (stereo not shown) [Example 13, 7-(1,4-dihydroxybutyl)-5,6,7,8-tetrahydro-1,6-naphthyridine-2-carboxylic acid hydrochloride] | – | IC50 ratio (IC50 Examples/IC50 Tranexamic acid) [1]: 1.63
Cl.O=C(O)c1ccc2c(n1)C(N1CC[S+]([O-])CC1)CNC2 (stereo not shown) [Example 21] | 0.14 | –
O=C(O)c1ccc2c(n1)CC(CNCCCO)NC2 (stereo not shown) [Example 11, 7-(((3-hydroxypropyl)amino)methyl)-5,6,7,8-tetrahydro-1,6-naphthyridine-2-carboxylic acid dihydrochloride] | 2.58 | –
Cl.O=C(O)c1ccc2c(n1)C(N1CCOCC1)CNC2 (stereo not shown) [Example 5, 8-morpholino-5,6,7,8-tetrahydro-1,6-naphthyridine-2-carboxylic acid hydrochloride] | 0.29 | –
Cl.O=C(O)c1nc2c(cc1F)CNCC2 [Example 17, 3-fluoro-5,6,7,8-tetrahydro-1,6-naphthyridine-2-carboxylic acid hydrochloride] | 0.34 | –

SMILES | IC50 ratio (IC50 Examples/IC50 Tranexamic acid) [1, 3] | also measured
CC(C)(C)CC1Cc2nc(C(=O)O)ccc2CN1.Cl (stereo not shown) [Example 36] | 0.13 | –
Cl.O=C(O)c1ccc2c(n1)CC(C(O)c1ccccc1)NC2 (stereo not shown) [Example 12, 7-(hydroxy(phenyl)methyl)-5,6,7,8-tetrahydro-1,6-naphthyridine-2-carboxylic acid hydrochloride] | 0.88 | –
CCCC1Cc2nc(C(=O)O)ccc2CN1.Cl (stereo not shown) [Example 39] | 0.17 | –
Cl.O=C(O)c1ccc2c(n1)CC(C(=O)NCCO)NC2 (stereo not shown) [Example 29] | 2.26 | –
CC(C)C(O)C1Cc2nc(C(=O)O)ccc2CN1.Cl (stereo not shown) [Example 33] | 0.53 | –
CC(C)C1Cc2nc(C(=O)O)ccc2CN1.Cl (stereo not shown) [Example 37] | 0.18 | –
Cl.O=C(O)c1ccc2c(n1)C(N1CCS(=O)(=O)CC1)CNC2 (stereo not shown) [Example 6, 8-(1,1-dioxido-thiomorpholino)-5,6,7,8-tetrahydro-1,6-naphthyridine-2-carboxylic acid hydrochloride] | 0.31 | –
Cl.O=C(O)c1ccc2c(n1)C(OCCO)CNC2 (stereo not shown) [Example 18] | 0.66 | –
Cl.O=C(O)c1ccc2c(n1)CC(CCCCCO)NC2 (stereo not shown) [Example 28] | 0.27 | –
Cl.O=C(O)c1ccc2c(n1)CC(COCCO)NC2 (stereo not shown) [Example 32] | 0.61 | –
Cl.O=C(O)c1ccc2c(n1)CC(C(=O)OCCCO)NC2 (stereo not shown) [Example 30] | 0.32 | –
Cl.O=C(O)c1ccc2c(n1)C(N1CCOC(Cc3ccccc3)C1)CNC2 (stereo not shown) [Example 15, 8-(2-benzylmorpholino)-5,6,7,8-tetrahydro-1,6-naphthyridine-2-carboxylic acid hydrochloride] | 0.57 | –
Cl.O=C(O)c1ccc2c(n1)CC1(CCOCC1)NC2 [Example 44] | 0.23 | –
Cl.O=C(O)c1ccc2c(n1)CC(CC1CCCCC1)NC2 (stereo not shown) [Example 41] | 0.12 | –
CCC1(CC)Cc2nc(C(=O)O)ccc2CN1.Cl [Example 45, 7,7-diethyl-5,6,7,8-tetrahydro-1,6-naphthyridine-2-carboxylic acid hydrochloride] | 0.57 | –
NC[C@H]1CC[C@H](C(=O)O)CC1 [tranexamic acid, trans-4-aminomethyl-cyclohexane-carboxylic acid] | – | anti-fibrinolytic activity relative to EACA (fibrinolysis): about 10 times
Cl.O=C(O)c1ccc2c(n1)C(N1CCSCC1)CNC2 (stereo not shown) [Example 20] | 0.50 | –
CC(C)CC1(CC(C)C)Cc2nc(C(=O)O)ccc2CN1.Cl [Example 48] | 0.42 | –
Cl.O=C(O)c1ccc2c(n1)CC(CCc1ccccc1)NC2 (stereo not shown) [Example 35] | 0.12 | –
Cl.O=C(O)c1ccc2c(n1)CC(COCCCO)NC2 (stereo not shown) [Example 7, 7-((3-hydroxypropoxy)methyl)-5,6,7,8-tetrahydro-1,6-naphthyridine-2-carboxylic acid hydrochloride] | 0.25 | –
Cl.O=C(O)c1ccc2c(n1)CCNC2 [Example 1, 5,6,7,8-tetrahydro-1,6-naphthyridine-2-carboxylic acid hydrochloride] | – | AUC [2]: 4110 ng·h/mL; Cmax [2]: 10600 ng/mL; clearance [2]: 4 mL/min/kg
Cl.O=C(O)c1ccc2c(n1)C(O)CNC2 (stereo not shown) [Example 2, 8-hydroxy-5,6,7,8-tetrahydro-1,6-naphthyridine-2-carboxylic acid hydrochloride] | 1.24 | –
Cl.O=C(O)c1ccc2c(n1)C(N1CCCCC1)CNC2 (stereo not shown) [Example 19] | 5.75 | –

Source: patent publication US20240124443A1, “PLASMIN INHIBITOR, PREPARATION METHOD THEREFOR, AND APPLICATION THEREOF” (SCINNOHUB PHARMACEUTICAL CO., LTD, priority 2021, published 2024)
